Target: T1, human lung fibroblast collagenase (Homo sapiens, UniProt P03956)
T1 construct: purified from culture supernatants from the human lung fibroblast cell line, WI-38; endogenous in cells; host or cells: WI-38 (human lung fibroblast cell line), culture supernatant, purified
T1 sequence (P03956 100-469): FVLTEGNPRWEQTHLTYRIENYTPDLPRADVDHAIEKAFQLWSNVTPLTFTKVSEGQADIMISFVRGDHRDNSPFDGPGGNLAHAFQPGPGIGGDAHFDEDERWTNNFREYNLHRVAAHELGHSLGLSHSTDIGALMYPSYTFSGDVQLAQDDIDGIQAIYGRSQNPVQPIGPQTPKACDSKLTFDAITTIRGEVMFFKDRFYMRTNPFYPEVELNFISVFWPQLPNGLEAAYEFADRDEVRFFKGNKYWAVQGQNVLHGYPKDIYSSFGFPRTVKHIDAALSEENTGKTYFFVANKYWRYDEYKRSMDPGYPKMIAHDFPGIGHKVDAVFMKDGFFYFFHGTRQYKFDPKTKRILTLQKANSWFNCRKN
Assay: Collagenase inhibitor assay (degradation of 3H-acetylated rat skin type I collagen)
Assay type: biochemical
Conditions: collagenase purified from WI-38 culture supernatants; 3H-acetylated rat skin type I collagen substrate; 5 min pre-incubation, 37° C. overnight; β-mercaptoethanol may be incorporated; read-out: IC50 (50% inhibitory concentration), inhibition of human lung fibroblast collagenase
Procedure: The test is performed essentially as in Cawston and Barrett, Anal. Biochem. 99, 340-345 (1979). Compounds for testing are dissolved in methanol by sonication and added to collagenase (purified from culture supernatants from the human lung fibroblast cell line, WI-38) in buffer. To ensure that thiol collagenase inhibitors remain unoxidised, β-mercaptoethanol may be incorporated in the methanol solvent and/or the diluent buffers to give a final concentration of 9.6×10-^5 M. The minimal direct effect of β-mercaptoethanol on the degradation of collagen by human collagenase is controlled for. After a 5 min pre-incubation at 37° C., the assay tubes are cooled to 4° C. and ^3 H-acetylated rat skin type I collagen is added. The assay tubes are incubated at 37° C. overnight. The ^3 H-collagen forms insoluble fibrils, which are the substrate for the enzyme.
To terminate the assay, the assay tubes are spun at 12000 rpm for 15 min. Undigested ^3 H-collagen is pelleted, while digested ^3 H-collagen is found as soluble peptides in the supernatant. A sample of the supernatant is taken for liquid scintillation counting.
The activity of collagenase inhibitors (IC50 :50% inhibitory concentration) is expressed as that concentration of compound that inhibits a known (standard) concentration of enzyme by 50%.

IC50 [nM] | SMILES
74.5 | CC(C)CC(C(=O)NC1CCCCCCCCCCNC1=O)C(S)CC(=O)O (single isomer, unassigned) [Example E3A, 3-Mercapto-6-methyl-4-[(2-oxoazacyclotridec-3-yl)aminocarbonyl]heptanoic acid]
15 | CC(C)CC(C(=O)NC1CCCCCCCCCCNC1=O)C(S)CC(=O)OC(C)C (stereo not drawn) [Example E4A]
2.7 | COC(=O)CC(S)C(CC(C)C)C(=O)NC1CCCCCCCCCCNC1=O (single isomer, unassigned) [Example E2A, 3-mercapto-6-methyl-4-[(2-oxoazacyclotridec-3-yl)aminocarbonyl]heptanoic acid, methyl ester]
